Results reported in US20050096370A1, “Method for inhibiting tumor angiogenesis and tumor growth” (Bizbiotech Co., Ltd., priority 2003, published 2005).

Tests used:
VEGF = VEGF mRNA RT-PCR in NCI-H87, SiHa, SK-N-MC and Caki-1 cells under hypoxia; assay type: cell-based, human; conditions: Caki-1 cells, hypoxic, 16 hours
Procedure: FIG. 5 is an autoradiograph showing mRNA levels of VEGF and β-actin in cancer cells of different origin.
Levels of HIF-1α and β-actin proteins were analyzed by immunoblot analysis using a rabbit anti-HIF-1α antibody or a rabbit anti-p-actin antibody. Proteins were visualized by enhanced chemiluminescence.

Hep3B hepatoma = Hep3B hepatoma xenograft tumor growth in nude mice; assay type: in vivo; conditions: P<0.001 versus vehicle
Procedure: Male nude mice were injected subcutaneously in the flank with 5×10^6 viable Hep3B hepatoma (A), NCI-H87 gastric carcinoma (B), SiHa cervical carcinoma (C), SK-N-MC neuroblastoma (E), or Caki-I renal carcinoma (F) cells. […] Tumor size was measured over time. […] Differences between tumor sizes in the vehicle- and YC-1-treated groups for mice with Hep3B tumors were compared using ANOVA and Duncan's multiple range tests. * denotes P<0.001 relative to the control. Differences between tumor sizes in the vehicle and YC-1-treated groups for mice with other tumors (B-E) were compared using a Mann-Whitney U test. Each number beneath the error bar represents the P value of the difference relative to the control.
Male nude (BALB/cAnNC˜-nu/nu) mice were purchased from Charles River Japan Inc. (Shin-Yokohama, JAPAN). The animals were housed in a specific pathogen-free room under controlled temperature and humidity. All animal procedures were performed according to the established procedures of the Seoul National University Laboratory Animal Maintenance Manual. Eighty mice aged 7-8 weeks were injected with tumor cells for the xenograft experiments. […]
Tumors were measured every 2 or 3 days with calipers in two dimensions and the tumor volumes were calculated using the formula: Volume=axb2/2, where a is the width at the widest point of the tumor and h is the width perpendicular to a. […]

[1] = test system: natural killer (NK) cell activity; experiment: NK cell activity of splenic lymphocytes incubated with YC-1 in vitro (51Cr release from YAC-1 cells); assay type: cell-based, nude mice; conditions: 24 hours
Procedure: (§1) The lymphocytes were then incubated at the indicated effectontarget cell (E:T) ratios with ^51Cr-labeled YAC-1 cells (1×10^4). After 4 hours, the amount of radioactivity in the culture supernatants was measured with a gamma counter. […] Splenic lymphocytes were then isolated and tested for NK cell activity. The result is expressed as the mean of four separate experiments with 95% confidence intervals.
The quality of the extracted RNAs was verified by identifying the 18S ribosomal RNA (rRNA) on a 1% denaturing agarose gel. VEGF, aldolase A and enolase 1 mRNA levels were also lower in YC-1-treated tumors than in vehicle-treated tumors one experiment. Results are expressed as the mean and 95% confidence intervals of 4 separate experiments.
(§2) Splenic lymphocytes were isolated from each mouse and tested immediately for NK cell activity. The spontaneous release of ^51Cr from YAC-1 cells was usually lower than 10% of the total ^51Cr loaded. NK cell activity was calculated as follows: {(experimental release−spontaneous release)/(total release−spontaneous release)}×100. Each assay was repeated three times and the average value is the result from one experiment. Results are expressed as the mean and 95% confidence intervals of 4 separate experiments.

[2] = test system: natural killer (NK) cell activity; experiment: NK cell activity of splenic lymphocytes from treated mice (51Cr release from YAC-1 cells); assay type: in vivo, nude mice; conditions: 30 μg/g daily i.p. for 2 weeks
Procedure: as §1, §2

OCc1ccc(-c2nn(Cc3ccccc3)c3ccccc23)o1 [YC-1, 3-(5′-hydroxymethyl-2′-furyl)-1-benzylindazole]
level of VEGF mRNA (VEGF): dose-dependently inhibited | tumor volume, mean, last day of experiment (Hep3B hepatoma; YC-1 30 μg/g daily i.p. for 2 weeks after tumors established (100-150 mm^3)): 126 mm^3 | tumor volume, mean, last day of experiment (Hep3B hepatoma; YC-1 daily i.p. for 2 weeks, started the day after tumor cell injection): 422 mm³ | cytolytic activity against YAC-1 cells versus lymphocytes incubated without YC-1 [1]: comparable | cytolytic activity versus vehicle-treated mice [2]: comparable
